# Measurements published in paper PMC3929365, “Benzimidazoisoquinolines: A New Class of Rapidly Metabolized Aryl Hydrocarbon Receptor (AhR) Ligands that Induce AhR-Dependent Tregs and Prevent Murine Graft-Versus-Host Disease” (PLoS ONE, 2014).
# Columns and labels:
# AhR [1] = experiment: AhR-regulated (XRE) luciferase reporter gene assay in Hepa-1 cells; format: cell-based, mouse; details: nanomolar concentrations, 12 h, Hepa-1 cells
# Experimental: (§1) Figure 1 10-Cl-BBQ is a potent AhR ligand. A) Structure of 10-Cl-BBQ. […] C) Hepa-1 cells expressing endogenous AhR were transfected with an AhR-regulated luciferase reporter gene (xenobiotic responsive element (XRE)-MMTVpromoter-Luc) and the reporter gene activity was measured after 12 h of treatment with 1 nM TCDD or the indicated concentrations of 10-Cl-BBQ. D) Alteration in proteolytic pattern of AhR by 10-Cl-BBQ. Whole cell lysate (45 µg of protein) from mouse hepatoma Hepa1c1c7 cells was incubated with 100 nM 10-Cl-BBQ or 0.1% DMSO for 1 h at RT and proteolyzed by 1 µg/ml subtilisin for 1, 2, 4, and 8 min at RT. Proteolytic cleavage products of AhR were analyzed by immunoblot. E) Electrophoretic mobility shift assay showing the ligand-stimulated binding of AhR to XRE. Whole cell lysate (18 µg of protein) from mouse hepatoma Hepa1c1c7 cells was incubated with 10 nM 10-Cl-BBQ or 0.1% DMSO for 2 h at room temperature and ^32P-labeled oligonucleotide containing XRE for 20 min at room temperature. The samples were electrophoresed on a native polyacrylamide gel and the signal was visualized by Phosphor Imager. Unlabeled competitor XRE or antibody (Ab) against AhR or Arnt was co-incubated with ^32P-labeled oligonucleotide.
# The mean luciferase activity is shown with SEM. […] 3-MC binding to AhR.
# donor CD4+ T cells = experiment: AhR-Treg phenotype of alloactivated donor CD4+ T cells 48 h after initiating the GVH response; format: in vivo, B6D2F1 host mice
# Experimental: Splenocytes and lymphocytes were harvested from C57Bl/6 mice. In some experiments, T cells were purified by negative selection using a Pan-T kit (Miltenyi Biotec) and stained with 2 µM carboxyfluorescein succinimidyl ester (CFSE) (Life Technologies). At least 2×10^7 purified T cells or approximately 1×10^8 pooled splenocytes and lymphocytes were injected i.v. into B6D2F1 host mice to initiate the GVH response. GVHD pathology was assessed on a scale of 0 to 3 (0 = normal, 1 = moderate morbidity, 2 = severe morbidity, 3 = death) according to the following five criteria: weight-loss, posture, activity, fur texture and death and reported as a Clinical GVHD Score.
# Host mice were treated daily with vehicle, 10-Cl-BBQ or BBQ analogues by i.p. injection. The vehicle consisted of a mixture of 6.7% anisole and peanut oil. Mice treated with a single i.p. dose of 15 µg TCDD/kg body weight in the same vehicle were used as positive controls.
# Antibodies to CTLA-4, Foxp3, ICOS, CD62L, CD25, CD19, CD44) and a fixable viability dye were purchased from eBiosciences. Additional antibody reagents included CD4 and CD8 (Life Technologies); H-2D^d (Biolegend) and CD45RB (PharMingen). After surface staining, the cells were fixed and permeabilized with Cytofix/cytoperm (BD Biosciences) for intracellular CTLA-4 stain. The flow cytometry data were acquired on an FC500 instrument (Beckman Coulter) and the data were analyzed using WinList 7.0 (Verity Software House). Fluorescence minus one (FMO) controls were used for setting histogram gates during the analysis.
# Figure 3 10-Cl-BBQ induces an AhR-dependent Treg phenotype 48 h after initiating the GVH response. On day 0, B6D2F1 host mice in groups of 5 were injected with CFSE-labeled C57Bl/6 T cells and given 15 mg/kg 10-Cl-BBQ, 15 µg/kg TCDD or vehicle by i.p. injection. At 24 h, an additional dose of 7 mg/kg 10-Cl-BBQ or vehicle was given. […] Treatment mean ± SEM is shown in the quadrant of interest. […] C) AhR-dependent induction of the donor Treg phenotype by 10-Cl-BBQ. On day 0, B6D2F1 host mice in groups of 5 were injected with donor T cells obtained from AhR^+/+ or AhR^−/− C57Bl/6 mice. Host mice were treated with 2 mg/kg10-Cl-BBQ or vehicle immediately following donor cell transfer and again at 24 hr. […] D) Dose-dependent induction of Treg phenotype by 10-Cl-BBQ. On day 0, B6D2F1 host mice in groups of 3–5 were injected with C57Bl/6 T cells. Mice were immediately treated with 0, 0.4, 2 or 10 mg/kg 10-Cl-BBQ and again on day 1. On day 2, expression of markers associated with the AhR-Treg phenotype increased as the dose of 10-Cl-BBQ increased. E) In the same mice as in D, lymph nodes were harvested and analyzed for expression of genes that were previously shown to increase under the same GVH conditions with TCDD treatment (13). […] Changes in gene expression were calculated relative to the β-actin gene, and the fold-induction was calculated by the ΔΔCt method using the vehicle-treated samples as a control. * = p<0.05 relative to vehicle treatment. […]
# [2] = Serum liver chemistry profile; format: in vivo, B6D2F1 mice; details: 10 mg/kg/day i.p., 2 days
# Experimental: Supplementary file pone.0088726.s004.docx: Table S1 Serum liver chemistry profile. B6D2F1 mice were give 10 mg/kg/day of 10-Cl-BBQ or vehicle i.p. After 2 days serum was collected and analyzed. n = 5 mice per treatment, average values are shown(± standard deviation). ALT – Alanine transaminase, SGPT – serum glutamic pyruvate transaminase. (DOCX) Click here for additional data file.
# Table S1. Serum liver chemistry profile. B6D2F1 mice were give 10 mg/kg/day of 10-Cl-BBQ or vehicle i.p. After 2 days serum was collected and analyzed. n = 5 mice per treatment, average values are shown(± standard deviation). ALT – Alanine transaminase, SGPT – serum glutamic pyruvate transaminase.
# AhR [3] = experiment: Subtilisin proteolysis pattern of AhR in Hepa1c1c7 whole cell lysate; format: biochemical, mouse; details: 100 nM, 1 h, 1 µg/ml subtilisin
# Experimental: as §1
compound,measurement,setting,value
"O=c1c2cccc3cccc(c32)c2nc3ccc(Cl)cc3n12 [10-Cl-BBQ, 10-chloro-7H-benzimidazo[2,1-a]benzo[de]isoquinolin-7-one]",activation of the AhR-regulated reporter gene,AhR [1],activated the AhR-regulated reporter gene
same,changes in parameters associated with AhR-Tregs,donor CD4+ T cells; 0.4 mg/kg/day for two days,failed to induce significant changes
same,induction of the Treg phenotype with AhR-deficient donor T cells,"donor CD4+ T cells; AhR−/− donor T cells, 2 mg/kg at 0 and 24 hr, day 2",failed to induce the Treg phenotype
same,minimum effective dose to induce Tregs,donor CD4+ T cells; i.p. for two days after initiation of the GVH response,2.0 mg/kg/day
same,acute hepatic toxicity in mice,[2],nor did it induce acute hepatic toxicity
same,ALT (SGPT),"[2]; serum, mean (± SD), n = 5",34.4 (± 10.4) U/l
same,Albumin,"[2]; serum, mean (± SD), n = 5",3.3 (± 0.1) g/dl
same,Alkaline Phosphatase,"[2]; serum, mean (± SD), n = 5",51.4 (± 8.3) U/l
same,Bilirubin,"[2]; serum, mean (± SD), n = 5",0.12 (± 0) mg/dl
same,Blood Urea Nitrogen,"[2]; serum, mean (± SD), n = 5",10.2 (± 1.5) mg/dl
same,Cholesterol,"[2]; serum, mean (± SD), n = 5",119.2 (± 10.4) mg/dl
same,Glucose,"[2]; serum, mean (± SD), n = 5",201.2 (± 10.4) mg/dl
same,Gamma Glutamyl Transferase,"[2]; serum, n = 5",0 U/l
same,proteolysis of AhR,AhR [3],delayed its proteolysis
